Assay results as given in PubChem BioAssay (NCI).
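Cultured in 96-well plates, cells were exposed to test compound for 48 hours across five concentrations. GI50: concentration for 50% inhibition of growth. TGI marks complete inhibition of growth.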

Tests used:
Experiment in all cases: DTP human tumour cell line panel, 48 h
HCC-2998 colon = system: HCC-2998 colon
786-0 renal = system: 786-0 renal
SK-MEL-2 melanoma = system: SK-MEL-2 melanoma
SR leukemia = system: SR leukemia
MCF7 breast = system: MCF7 breast
UACC-257 melanoma = system: UACC-257 melanoma
SK-OV-3 ovarian = system: SK-OV-3 ovarian
UACC-62 melanoma = system: UACC-62 melanoma
MALME-3M melanoma = system: MALME-3M melanoma

| SMILES | TGI (HCC-2998 colon) | TGI (786-0 renal) | TGI (SK-MEL-2 melanoma) | TGI (SR leukemia) | TGI (MCF7 breast) | TGI (UACC-257 melanoma) | TGI (SK-OV-3 ovarian) | TGI (UACC-62 melanoma) | TGI (MALME-3M melanoma) | GI50 (HCC-2998 colon) | GI50 (SK-MEL-2 melanoma) | GI50 (SR leukemia) | GI50 (MCF7 breast) | GI50 (UACC-257 melanoma) | GI50 (SK-OV-3 ovarian) | GI50 (UACC-62 melanoma) | GI50 (MALME-3M melanoma) |
| --- | --- | --- | --- | --- | --- | --- | --- | --- | --- | --- | --- | --- | --- | --- | --- | --- | --- |
| CN(C)CCOc1ccc(I)cc1Cc1ccccc1 | 9.62 µM | 23 µM | 30.7 µM | 7.81 µM | 27.5 µM | 29.2 µM | 33 µM | 13.1 µM | 29.9 µM | – | – | – | – | – | – | – | – |
| CC(C)Nc1[nH]c(C(=O)c2ccccc2)c(N)c1C(=S)Nc1ccccc1 | 46.2 µM | > 100 µM | 52.1 µM | > 100 µM | > 100 µM | 46.7 µM | > 100 µM | 35.2 µM | 43.8 µM | – | – | – | – | – | – | – | – |
| Cc1cc2nc(N3C(=O)/C(=C/c4cccc([N+](=O)[O-])c4)N=C3c3ccccc3)sc2cc1C | 53.7 µM | > 100 µM | 60 µM | 35.1 µM | 43.9 µM | > 100 µM | > 100 µM | > 100 µM | – | – | – | – | – | – | – | – | – |
| O=C1/C(=C\c2ccc([N+](=O)[O-])cc2)Sc2scc(-c3ccc(O)c(O)c3)[n+]21 | 19 µM | 22.5 µM | 29.3 µM | 27.9 µM | 15.3 µM | 22.6 µM | 26.2 µM | 23.4 µM | – | – | – | – | – | – | – | – | – |
| CNNC1=NS(=O)(=O)c2cc(C)c(Cl)cc2S1 | > 10 µM | > 10 µM | > 10 µM | – | – | > 10 µM | > 10 µM | > 10 µM | > 10 µM | – | – | – | – | – | – | – | – |
| O=C(O)C(Cc1ccc2c(c1)CCC2)(Cc1ccc2c(c1)CCC2)C(=O)O | > 100 µM | > 100 µM | > 100 µM | > 100 µM | > 100 µM | > 100 µM | > 100 µM | > 100 µM | > 100 µM | – | – | – | – | – | – | – | – |
| CCOc1ccc2ccccc2c1NC1=NCCO1 | > 100 µM | > 100 µM | – | > 100 µM | > 100 µM | > 100 µM | > 100 µM | > 100 µM | > 100 µM | – | – | – | – | – | – | – | – |
| CC[C@@H]1CN2CCC1C[C@@H]2C(O)c1ccnc2ccc(OCCN3CCN(CCOc4ccc5nccc(C(O)[C@@H]6C[C@@H]7CCN6C[C@@H]7CC)c5c4)CC3)cc12 (stereo partly specified) | 26.2 µM | 30.2 µM | 37.2 µM | – | 31.8 µM | 32.1 µM | 33.2 µM | 30.5 µM | 54.1 µM | – | – | – | – | – | – | – | – |
| CC[C@@H](CCCC[C@@H]1CC[C@H]2CC(=O)C[C@@H]12)OC | > 100 µM | > 100 µM | > 100 µM | > 100 µM | > 100 µM | > 100 µM | > 100 µM | > 100 µM | > 100 µM | – | – | – | – | – | – | – | – |
| COc1ccc(NC(=O)CC(=O)n2nc(C)c(N=Nc3ccc(C)c(C)c3)c2C)cc1 | > 100 µM | > 100 µM | > 100 µM | > 100 µM | > 100 µM | – | 27.7 µM | > 100 µM | > 100 µM | – | – | – | – | – | – | – | – |
| O=C1NCC2(CCNCC2)N1c1ccccc1 | > 100 µM | > 100 µM | > 100 µM | > 100 µM | > 100 µM | > 100 µM | – | > 100 µM | > 100 µM | – | – | – | – | – | – | – | – |
| CN1CCN(c2nc3ccccc3nc2C(=O)c2ccc(Cl)cc2)CC1 | 99.7 µM | > 100 µM | > 100 µM | > 100 µM | > 100 µM | > 100 µM | > 100 µM | 76.2 µM | 48.1 µM | – | – | – | – | – | – | – | – |
| COc1ccc2c(c1)c1nn(CCN(C)C)c3ccc4c(=O)n(CCN(C)C)c(=O)n2c4c13 | 0.0546 µM | 0.136 µM | 0.192 µM | 0.0522 µM | 0.198 µM | 0.717 µM | 0.304 µM | 0.474 µM | 0.555 µM | – | – | – | – | – | – | – | – |
| O=S(=O)(c1cc(Cl)ccc1Cl)N1CCN(c2ccc(Cl)c(Cl)c2)CC1 | > 100 µM | 34.3 µM | – | > 100 µM | > 100 µM | 92.7 µM | – | – | > 100 µM | – | – | – | – | – | – | – | – |
| O=C(NCCN1C(=O)CN=C(c2ccc(Cl)cc2)c2cc(Cl)ccc21)OCc1ccccc1 | 32.7 µM | 28.9 µM | 36 µM | 33.3 µM | – | 34.1 µM | > 100 µM | 38.7 µM | 31.6 µM | – | – | – | – | – | – | – | – |
| CC(=O)N1c2ccccc2C(C)(C)OC1C(Cl)(Cl)Cl (stereo unspecified) | 74.2 µM | > 100 µM | > 100 µM | – | 94.5 µM | 84.3 µM | > 100 µM | > 100 µM | > 100 µM | – | – | – | – | – | – | – | – |
| COc1ccc(/C=C2\CN(C(=O)CCN3CCC(=NO)CC3)C/C(=C\c3ccc(OC)cc3)C2=O)cc1 | 3.51 µM | – | 30.4 µM | 29.1 µM | 4.86 µM | 7.57 µM | 7 µM | 4.38 µM | 7.49 µM | 1.85 µM | 11.7 µM | 0.616 µM | 0.619 µM | 2.65 µM | 2.72 µM | 1.89 µM | 2.5 µM |
| O/N=c1/ccn(O)c2ccccc12 | 0.998 µM | 10.3 µM | 3.64 µM | 55.8 µM | 7.49 µM | 21 µM | 3.26 µM | 2.53 µM | 18.9 µM | – | – | – | – | – | – | – | – |
| O=[N+]([O-])c1cccc(N=C2c3ccccc3CN2c2cccc([N+](=O)[O-])c2)c1 | > 100 µM | > 100 µM | > 100 µM | – | > 100 µM | > 100 µM | > 100 µM | > 100 µM | – | – | – | – | – | – | – | – | – |
| COc1ccccc1/C=C1\Sc2scc(-c3cccc([N+](=O)[O-])c3)[n+]2C1=O | 22.8 µM | 9.63 µM | 31.3 µM | > 100 µM | 10.3 µM | 19.8 µM | 26 µM | 22.6 µM | 15.7 µM | – | – | – | – | – | – | – | – |
| CC(NC1=CC(=O)c2ncccc2C1=O)C(O)c1ccccc1 (stereo unspecified) | 23.2 µM | 26.2 µM | 17.9 µM | > 100 µM | 7.56 µM | 10.6 µM | 71.7 µM | – | 4.97 µM | – | – | – | – | – | – | – | – |
| CC(=O)Oc1c(C)cc(-c2cc(C)c(OC(C)=O)c(C)c2)cc1C | – | > 100 µM | > 100 µM | > 100 µM | > 100 µM | > 100 µM | 38.4 µM | > 100 µM | > 100 µM | – | – | – | – | – | – | – | – |
| CN(C)CCN1C(=O)CC[C@@]2(C)C1=CC[C@@H]1[C@@H]2CC[C@@]2(C)[C@H]1CC[C@]2(C)O | – | > 100 µM | > 100 µM | > 100 µM | > 100 µM | > 100 µM | > 100 µM | > 100 µM | > 100 µM | – | – | – | – | – | – | – | – |
